Source: publication PMC8125234, “Cardiolipin Stabilizes and Increases Catalytic Efficiency of Carnitine Palmitoyltransferase II and Its Variants S113L, P50H, and Y479F” (International Journal of Molecular Sciences, 2021)

Target: T1, CPT II WT (Homo sapiens, UniProt P23786)
T1 construct: made in house; host or cells: Escherichia coli BL21Gold DE
T1 sequence (P23786 26-658): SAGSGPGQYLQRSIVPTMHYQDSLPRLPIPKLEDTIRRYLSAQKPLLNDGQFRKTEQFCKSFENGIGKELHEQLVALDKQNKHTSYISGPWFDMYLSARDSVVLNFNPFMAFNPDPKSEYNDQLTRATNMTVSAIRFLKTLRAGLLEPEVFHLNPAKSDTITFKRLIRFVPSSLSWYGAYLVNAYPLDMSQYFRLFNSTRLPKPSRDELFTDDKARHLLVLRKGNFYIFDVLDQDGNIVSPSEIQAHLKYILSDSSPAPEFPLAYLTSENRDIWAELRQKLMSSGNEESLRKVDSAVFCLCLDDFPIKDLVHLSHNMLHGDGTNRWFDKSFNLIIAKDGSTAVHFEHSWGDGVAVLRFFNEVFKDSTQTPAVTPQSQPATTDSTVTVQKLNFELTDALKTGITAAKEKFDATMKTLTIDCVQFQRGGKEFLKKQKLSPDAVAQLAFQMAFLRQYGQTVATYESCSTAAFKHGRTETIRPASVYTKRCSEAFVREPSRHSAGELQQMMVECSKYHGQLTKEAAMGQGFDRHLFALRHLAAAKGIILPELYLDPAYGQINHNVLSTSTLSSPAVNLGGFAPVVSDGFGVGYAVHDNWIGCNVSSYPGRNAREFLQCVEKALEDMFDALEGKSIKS
Assay: Lipid binding assay (membrane lipid strips)
Conditions: 0.4 mg enzyme, 100 pmol lipid spots
Description: Direct interaction of CPT II WT and variants with phospholipids of the mitochondrial membrane was assessed using membrane lipid strips (Echelon Biosciences, Salt Lake City, Utah, USA). The membrane was spotted with 100 pmol of various cell membrane lipids. The assay was performed following manufacturer’s instructions with some modifications explained in the following. At first, the membrane was washed twice in phosphate buffered saline (PBS). After 1 h incubation with blocking solution (3% BSA fatty acid-free in PBS) at room temperature, the membrane was incubated with purified CPT II WT or variant (final amount 0.4 mg protein) for 2 h at 4 °C. After three washing steps, a-His-Probe (H3) mouse monoclonal antibody (Santa Cruz Biotech, Santa Cruz, CA, USA, 1:1000 dilution in PBS containing 3% BSA) was added to the membrane over night at 4 °C. The membrane was washed three times with PBS and incubated with mouse IgG horseradish peroxidase-linked whole antibody (from sheep, Amersham, Little Chalfont, Buckinghamshire, UK) for 1 h at 4 °C. The interaction was visualized by ECL Western blotting detection reagents (Amersham, Little Chalfont, Buckinghamshire, UK).

With Cardiolipin [CL] the “Signal for interaction on membrane lipid strips” value was “clearly proven”.
